Source: publication PMC5065625, “Structure-mechanism-based engineering of chemical regulators targeting distinct pathological factors in Alzheimer's disease” (Nature Communications, 2016)

Legend:
[1] = Parallel artificial membrane permeability assay adapted for BBB (PAMPA-BBB); format: in vitro ADME; conditions: 25 μM, pH 7.4, 4 h
Experimental: PAMPA-BBB experiments were conducted using the PAMPA Explorer kit (pION Inc., Billerica, MA, USA) using previously reported protocols. Compounds (25 μM, 200 μl) in pH 7.4 Prisma HT buffer (pION) were added to the wells of a donor plate (number of replicates=12). The polyvinylidene fluoride (PVDF, […]) filter membrane on the acceptor plate was coated with BBB-1 lipid formulation (5 μl, pION). The acceptor plate was placed on top of the donor plate. Brain sink buffer (BSB, 200 μl, pION) was added to each well of the acceptor plate and was incubated for 4 h at ambient temperature without stirring. UV–vis spectra of the solutions in the reference, acceptor, and donor plates were measured using a microplate reader. The PAMPA Explorer software v. 3.5 (pION) was used to calculate the −logPe values for compounds. CNS±designations were assigned by comparison with compounds that were identified in previous reports.

[2] = test system: human neuroblastoma SK-N-BE(2)-M17 (M17) cells; assay: Cell viability (MTT assay), compounds with and without metal ions; format: cell-based; conditions: with and without Cu(II) and Zn(II), up to 20 μM
Experimental: (§1) The M17 cell line was purchased from the American Type Culture Collection (ATCC, Manassas, VA, USA). The cell line was maintained in media containing 50% minimum essential medium and 50% F12 (GIBCO, Grand Island, NY, USA), supplemented with 10% fetal bovine serum (Sigma), 100 U ml^−1 penicillin, and […] streptomycin (GIBCO). The cells were grown and maintained at 37 °C in a humidified atmosphere with 5% CO2. […] Cell viability upon treatment of compounds was determined using the MTT assay (Sigma). M17 cells were seeded in a 96-well plate (15,000 cells in 100 μl per well). The cells were treated with Aβ (20 μM) with or without CuCl2 or ZnCl2 (20 μM), followed by the addition of compounds (20 μM, 1% v/v final DMSO concentration), and incubated for 24 h. After incubation, 25 μl MTT (5 mg ml^−1 in phosphate buffered saline (PBS, pH 7.4, GIBCO) was added to each well and the plate was incubated for 4 h at 37 °C. Formazan produced by the cells was solubilized using an acidic solution of N,N-dimethylformamide (DMF, 50%, v/v aq) and SDS (20%, w/v) overnight at room temperature in the dark. The absorbance was measured at 600 nm using a microplate reader. Cell viability was calculated relative to cells containing an equivalent amount of DMSO.

[3] = test system: Aβ40/Aβ42 toxicity in M17 cells; assay: Cell viability (MTT assay), compounds with Aβ and metal–Aβ; format: cell-based, human; conditions: compound 20 μM, Aβ40/Aβ42 20 μM, CuCl2 or ZnCl2 20 μM, 24 h
Experimental: as §1

[4] = Stability in solution (UV–vis, ESI–MS), metal-free; format: physicochemical; conditions: for k, metal-free (rate of decay of the absorbance peak) / t1/2, metal-free / Stability in solution: 50 μM; for Stability in solution: metal-free, HEPES pH 7.4, 37 °C, 5 h
Experimental: The stability of 1–4 (50 μM) in the absence and presence of CuCl2 (25 μM) was monitored every 10 min using UV–vis for 5 h in buffer ([…], pH 7.4, […]; 1% DMSO) at 37 °C. The resulting spectra were corrected for baseline shifts at 800 nm and the half-life and rate of decay of the absorbance at 250, 385 and 400 nm for 4, [Cu(II)+1], and [Cu(II)+3], respectively, was calculated using the first-order exponential decay function as implemented in Origin 9.1 (OrginLab Corp., Northampton, MA, USA). Additionally, the species present were identified using ESI–MS. Samples containing 1–4 (50 μM) with or without CuCl2 (25 μM) were incubated in ddH2O (1% DMSO) at 37 °C for the selected time points before being freshly frozen using liquid nitrogen and stored at −80 °C until they were thawed immediately before measurement.

[5] = Solubility; format: physicochemical
[6] = Cell viability (MTT assay), compounds with and without metal ions; format: cell-based, human; conditions: human, SK-N-BE(2)-M17 (M17) neuroblastoma cells; M17 cells, in the absence of Cu(II), 48 and 72 h
Experimental: as §1

[7] = HEPES pH 7.4, 150 μM NaCl, 37 °C
[8] = HEPES pH 7.4, 150 μM NaCl, 37 °C, absorbance peak decay

Structure (SMILES) | −logPe [1] | Toxicity in M17 cells [2] | Toxicity induced by metal–Aβ [3] | k, metal-free (rate of decay of the absorbance peak) [4, 7] | t1/2, metal-free [4, 8] | Stability in solution [4] | Water solubility relative to 1 [5] | viability at up to 20 μM [6] [%] | Solubility in the 2-deoxyribose assay buffer ([5]; phosphate buffer pH 7.2) | half-life at 50 μM ([4]; HEPES buffer, pH 7.4, 50 μM, HEPES pH 7.4, 150 μM NaCl, 37 °C, absorbance peak decay, read-out: t1/2, metal-free) [min]
Nc1ccc(NCc2ccccn2)cc1 [compound 1, N^1-(pyridin-2-ylmethyl)benzene-1,4-diamine] | 5.0(1) | nontoxic | diminished | too slow to accurately measure the rate | No noticeable spectral changes were observed over 5 h | stable over 5 h |  |  |  | 
COc1cc(NCc2ccccn2)cc(OC)c1 [compound 2, 3,5-dimethoxy-N-(pyridin-2-ylmethyl)aniline] | 4.2(8) | nontoxic | diminished | too slow to accurately measure the rate | No noticeable spectral changes were observed over 5 h | stable over 5 h | much lower degrees of water solubility |  |  | 
CN(C)c1ccc(NCc2ccc3ccccc3n2)cc1 [compound 3, N^1,N^1-dimethyl-N^4-(quinolin-2-ylmethyl)benzene-1,4-diamine] | 4.2(2) |  |  | too slow to accurately measure the rate | No noticeable spectral changes were observed over 5 h | changes in its Ultraviolet-Visible (UV-vis) spectra after 5 h of incubation occurring at a very slow rate |  |  |  | 
CN(C)c1ccc(NCc2ccc[nH]2)cc1 [compound 4, N^1-((1H-pyrrol-2-yl)methyl)-N^4,N^4-dimethylbenzene-1,4-diamine] | 4.9(0) |  |  | 0.016 ± 0.004 min⁻¹ | ~40 min | unstable |  | ~60 | poor solubility under the assay conditions | 43 ± 5
